Source: patent US11591323B2, “Muscarinic agonists as non-steroidal and non-opioid analgesics and methods of use thereof” (Barry University, priority 2019, dated 2023)
Entries after “also recorded” stand apart in the source; their conditions may differ.

Experiments:
Format in all cases: cell-based
cerebellum (M2 rich) = experiment: forskolin-stimulated cAMP in dissipated rat cerebellum; conditions: in words
Description: Effects of compounds 6A and 7A were then measured ex vivo in dissipated rat tissues (FIG. 5). Accumulation of IPX was measured in dissipated brain cortex (rich in M1 & M3), submaxillary gland (M1 & M3), and ventral tegmental area (M5). Native tissues express about 10-times less muscarinic receptors than CHO cell lines. Accumulation of cAMP was measured in cerebellum (M2) and striatum (M4).
Rat dissipated tissues: Suspension of dissipated tissues from rat brain cortex, cerebellum, striatum, ventral tegmental area (VTA) and submaxillary glands was prepared as described previously in supplementary methods. Adult 8-weeks old male Wistar rats were scarified by cervical dislocation in accordance with current legislative and guidelines under permission of Czech Ministry of Agriculture 16OZ23113/2017-17214. Tissues were dissected immediately. Submaxillary glands were minced by scissors. Tissues were dispersed by incubation for 15 min at 37° C. in KHB supplemented with trypsin and trituration every 5 min. Large undissipated parts were removed by cell mesh. Then dissipated tissues were centrifuged 3 min at 250×g, re-suspended in KHB and centrifuged again to remove trypsin. Suspension of dissipated tissues was used immediately in experiments. Two submaxillary glands or about 400 mg of brain tissue was used a 96-sample assay.
(§1) Measurements of the production of cAMP and inositol phosphates: Levels of second messengers cAMP and inositol phosphates were determined in radiochemical chromatography assays as described previously. To determine level of cAMP, cells in suspension were pre-incubated for 1 h with 0.4 μM [^3H]adenine, washed, and incubated for 10 min in the presence of isobutylmethylxanthine and 10 μM forskolin. […] Incubation was ended by addition of 0.2 ml of 2.5 M HCl to the samples. Samples were applied to alumina columns (1.5 g of alumina per column), washed with 2 ml ammonium acetate (pH=7.0) and eluted from columns with 4 ml ammonium acetate and measured by liquid scintillation spectrometry. […] For this purpose, new CHO cell lines stably expressing promiscuous G15 G-protein and M2 or M4 receptor were generated by transfection with pCMV/hygro vector and hygromycin selection. To determine the rate of formation of inositol phosphates IPX, suspended cells were pre-incubated with 0.1 μM [^3H]myo-inositol for 60 min, washed, and incubated with 10 mM LiCl for 15 min. […] The incubation was stopped by addition of 0.5 ml of chloroform methanol HCl mixture (2:1:0.1). After separation of water and organic phases, 0.6 ml of water phase was applied to Dowex columns (1.5 g of Dowex per column), washed by 20 ml of 60 mM ammonium formate/5 mM sodium borate buffer and eluted from columns with 4 ml of 1M ammonium formate/0.1 formic acid buffer and measured by liquid scintillation spectrometry.
To exclude the possibility that the observed effects of compounds 6A and 7A are the result of overexpression in the heterologous system, functional response to the compounds was measured ex vivo in dissipated native rat tissues. […] Accumulation of IPX was measured in brain cortex, submaxillary gland, and ventral tegmental area (VTA) as brain cortex and submaxillary glands are rich in M1 and in M3 receptors, respectively, and VTA is the only region expressing significant amount of M5 receptors. Accumulation of cAMP was measured in M2-rich cerebellum and M4-rich striatum.

M5 muscarinic receptor [1] = target: T1, M5 muscarinic receptor (Homo sapiens, UniProt P08912); experiment: stimulation of cAMP, M5 CHO cells (M5Gs); parameters: host or cells: CHO cells, stably transfected; conditions: for RAi / E′MAX / τ / Δlog(τ/KA): M5Gs (↑cAMP); for RAi: Table 8, relative to carbachol; for E′MAX / τ: Table 8; for Δlog(τ/KA): Table 8, to carbachol
T1 sequence (P08912 1-532): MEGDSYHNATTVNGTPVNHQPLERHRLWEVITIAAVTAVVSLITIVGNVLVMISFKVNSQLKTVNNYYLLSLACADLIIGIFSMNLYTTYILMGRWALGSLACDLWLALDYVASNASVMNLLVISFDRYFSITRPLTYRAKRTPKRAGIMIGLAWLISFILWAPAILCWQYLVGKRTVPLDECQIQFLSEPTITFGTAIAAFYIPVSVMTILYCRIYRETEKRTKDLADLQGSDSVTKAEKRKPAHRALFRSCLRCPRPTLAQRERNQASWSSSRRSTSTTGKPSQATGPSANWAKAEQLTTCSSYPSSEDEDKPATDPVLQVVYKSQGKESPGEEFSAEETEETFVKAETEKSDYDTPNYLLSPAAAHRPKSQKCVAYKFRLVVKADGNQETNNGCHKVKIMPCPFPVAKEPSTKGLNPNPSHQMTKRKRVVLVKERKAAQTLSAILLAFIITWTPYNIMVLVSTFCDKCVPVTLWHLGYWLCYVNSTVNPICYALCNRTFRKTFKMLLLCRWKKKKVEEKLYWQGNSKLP
Description: (§2) To determine level of cAMP, cells in suspension were pre-incubated for 1 h with 0.4 μM [^3H]adenine, washed, and incubated for 10 min in the presence of isobutylmethylxanthine and 10 μM forskolin. […] Incubation was ended by addition of 0.2 ml of 2.5 M HCl to the samples. Samples were applied to alumina columns (1.5 g of alumina per column), washed with 2 ml ammonium acetate (pH=7.0) and eluted from columns with 4 ml ammonium acetate and measured by liquid scintillation spectrometry. […] The incubation was stopped by addition of 0.5 ml of chloroform methanol HCl mixture (2:1:0.1). After separation of water and organic phases, 0.6 ml of water phase was applied to Dowex columns (1.5 g of Dowex per column), washed by 20 ml of 60 mM ammonium formate/5 mM sodium borate buffer and eluted from columns with 4 ml of 1M ammonium formate/0.1 formic acid buffer and measured by liquid scintillation spectrometry.
as §1
(§3) For bi-phasic response, curves were inhibitory and stimulatory phase were fitted separately. Operational Model of Functional Agonism
(§4) [formula] where y is functional response at concentration of tested compound x, EMAX is maximal response of the system, KA is equilibrium dissociation constant and nH is slope factor. Eq. 5 was fitted to data from functional experiments. Eq. 5 was fitted to data by the two-step procedure described earlier. […] In the second step, Eq. 5 with EMAX fixed to the value determined in the first step was fitted to individual experimental data sets. Relative Intrinsic Activity
Muscarinic receptors are also able to stimulate non-preferential signalling pathways.

M5 muscarinic receptor [2] = target: T1, M5 muscarinic receptor; experiment: accumulation of IPX, M5 CHO cells transfected with G15 (M5Gq+G15); parameters: expressed in transfected cells; host or cells: CHO cells; conditions: for EC50 / E′MAX / τ: Table 8; for Kd: Table 8, read-out: pKA (converted); for RAi: Table 8, relative to carbachol; for Δlog(τ/KA): Table 8, to carbachol
Description: as §2, §1, §3, §4

Row | SMILES | Emax of inhibition of cAMP synthesis (cerebellum (M2 rich)) | forskolin-stimulated cAMP level (cerebellum (M2 rich)) | RAi (M5 muscarinic receptor [1]) | EC50 (M5 muscarinic receptor [2]) | E′MAX (M5 muscarinic receptor [2]) | τ (M5 muscarinic receptor [2]) | Kd (M5 muscarinic receptor [2]) | RAi (M5 muscarinic receptor [2]) | Δlog(τ/KA) (M5 muscarinic receptor [2]) | increase of cAMP level (M5 muscarinic receptor [1]; M5, micromolar concentrations, in words) | E′MAX (M5 muscarinic receptor [1]) | τ (M5 muscarinic receptor [1]) | Δlog(τ/KA) (M5 muscarinic receptor [1]) | EC50 (M5 muscarinic receptor [1]) | Kd (M5 muscarinic receptor [1])
1 | C1=CCN(Cc2cccs2)CC1.Cl [Compound 6A, 1-[(thiophen-2-yl)methyl]-1,2,3,6-tetrahydropyridin-1-ium chloride] | comparable to inhibition by carbachol | only a decrease in cAMP level | 0 | 1.58 µM | 1.19 ± 0.04 fold over basal | 0.009 ± 0.003 | 1580 nM | 0.0025 ± 0.0008 | 2.60 ± 0.82 |  |  |  |  |  | 
2 | C[N+]1(Cc2cccs2)CC=CCC1.[I-] (stereo not drawn) [Compound 7A, 1-methyl-1-[(thiophen-2-yl)methyl]-1,2,3,6-tetrahydropyridin-1-ium iodide] | comparable to inhibition by carbachol | only a decrease in cAMP level | 0 | 7.94 µM | 1.28 ± 0.05 fold over basal | 0.014 ± 0.003 | 2000 nM | 0.0007 ± 0.0002 | 3.17 ± 0.88 |  |  |  |  |  | 
3 | C[N+](C)(C)CCOC(N)=O [carbachol, reference compound] |  | transient decrease in forskolin-stimulated cAMP level at nanomolar concentrations followed by an increase at micromolar concentrations; also recorded: transient decrease in forskolin-stimulated cAMP level at sub-micromolar concentrations followed by an increase at micromolar concentrations |  |  | 17 ± 2 fold over basal | 4.0 ± 0.4 |  |  | 0 | at micromolar concentrations it stimulated cAMP production; also recorded: increased cAMP level at micromolar concentrations | 1.23 ± 0.03 fold increase | 0.10 ± 0.02 | 0 |  | 
4 | O=C1CCCN1CC#CCN1CCCC1 [oxotremorine, reference compound] |  |  | 6.62 ± 0.58 |  | 16 ± 1 fold over basal | 2.6 ± 0.3 |  | 4.12 ± 0.26 | −0.62 ± 0.07 |  | 1.22 ± 0.03 fold increase | 0.09 ± 0.02 | −0.82 ± 0.08 | 3.8 µM | 3.98 µM
